Test results reported in patent US7323447B2, “Hepatitis C virus inhibitors” (Bristol-Myers Squibb Company, priority 2005, dated 2008).

What was measured:
Assay type in all cases: biochemical
[1] = target: T1, HCV NS3/4A protease complex (H77 strain) (Hepatitis C virus genotype 1a, UniProt P27958, C1454S/C1711G); assay: FRET peptide assay to monitor HCV NS3/4A proteolytic activity, H77 strain
T1 construct: DNA encoding the recombinant HCV NS3/4A protease complex (amino acids 1027 to 1711) for these strains; inferred from pET21b vector and Ni-NTA purification; made in house; host or cells: Escherichia coli BL21 (DE3), pET21b
T1 sequence (P27958 1027-1711 C1454S/C1711G, one chain of several): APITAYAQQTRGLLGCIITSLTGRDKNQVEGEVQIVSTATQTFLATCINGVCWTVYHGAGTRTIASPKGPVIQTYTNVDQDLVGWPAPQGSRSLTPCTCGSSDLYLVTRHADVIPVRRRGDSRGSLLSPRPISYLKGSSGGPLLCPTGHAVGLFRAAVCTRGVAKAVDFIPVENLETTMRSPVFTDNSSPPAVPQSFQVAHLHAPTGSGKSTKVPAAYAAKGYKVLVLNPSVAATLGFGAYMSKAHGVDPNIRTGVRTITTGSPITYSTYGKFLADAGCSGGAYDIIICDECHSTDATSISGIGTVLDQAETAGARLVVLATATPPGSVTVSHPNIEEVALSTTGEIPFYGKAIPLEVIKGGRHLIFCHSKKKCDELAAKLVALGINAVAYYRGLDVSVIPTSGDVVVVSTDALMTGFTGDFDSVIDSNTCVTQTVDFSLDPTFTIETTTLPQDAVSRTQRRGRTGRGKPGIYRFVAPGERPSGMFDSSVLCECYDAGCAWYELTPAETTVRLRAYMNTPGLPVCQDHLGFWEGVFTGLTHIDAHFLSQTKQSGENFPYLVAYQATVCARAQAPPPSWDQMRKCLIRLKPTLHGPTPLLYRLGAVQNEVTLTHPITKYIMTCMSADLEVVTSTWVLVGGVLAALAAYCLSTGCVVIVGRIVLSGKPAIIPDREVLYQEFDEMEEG
From the text: (§1) HCV NS3 protease complexes, derived from the BMS strain, H77 strain or J4L6S strain, were generated, as described below. These purified recombinant proteins were generated for use in a homogeneous assay (see below) to provide an indication of how effective compounds of the present disclosure would be in inhibiting HCV NS3 proteolytic activity.
(§2) The H77 and J4L6S strains were used for production of recombinant NS3/4A protease complexes. DNA encoding the recombinant HCV NS3/4A protease complex (amino acids 1027 to 1711) for these strains was manipulated as described by P. Gallinari et al. (see Gallinari P, Paolini C, Brennan D, Nardi C, Steinkuhler C, De Francesco R. Biochemistry. 38(17):5620-32, (1999)). Briefly, a three-lysine solubilizing tail was added at the 3′-end of the NS4A coding region. The cysteine in the P1 position of the NS4A-NS4B cleavage site (amino acid 1711) was changed to a glycine to avoid the proteolytic cleavage of the lysine tag. Furthermore, a cysteine to serine mutation was introduced by PCR at amino acid position 1454 to prevent the autolytic cleavage in the NS3 helicase domain. […]

[2] = target: T2, HCV NS3/4A protease complex (J4L6S strain) (Hepatitis C virus genotype 1b, UniProt O92972, C1454S/C1711G); assay: FRET peptide assay to monitor HCV NS3/4A proteolytic activity, J4L6S strain
T2 construct: DNA encoding the recombinant HCV NS3/4A protease complex (amino acids 1027 to 1711) for these strains; inferred from pET21b vector and Ni-NTA purification; made in house; host or cells: Escherichia coli BL21 (DE3), pET21b
T2 sequence (O92972 1027-1711 C1454S/C1711G, one chain of several): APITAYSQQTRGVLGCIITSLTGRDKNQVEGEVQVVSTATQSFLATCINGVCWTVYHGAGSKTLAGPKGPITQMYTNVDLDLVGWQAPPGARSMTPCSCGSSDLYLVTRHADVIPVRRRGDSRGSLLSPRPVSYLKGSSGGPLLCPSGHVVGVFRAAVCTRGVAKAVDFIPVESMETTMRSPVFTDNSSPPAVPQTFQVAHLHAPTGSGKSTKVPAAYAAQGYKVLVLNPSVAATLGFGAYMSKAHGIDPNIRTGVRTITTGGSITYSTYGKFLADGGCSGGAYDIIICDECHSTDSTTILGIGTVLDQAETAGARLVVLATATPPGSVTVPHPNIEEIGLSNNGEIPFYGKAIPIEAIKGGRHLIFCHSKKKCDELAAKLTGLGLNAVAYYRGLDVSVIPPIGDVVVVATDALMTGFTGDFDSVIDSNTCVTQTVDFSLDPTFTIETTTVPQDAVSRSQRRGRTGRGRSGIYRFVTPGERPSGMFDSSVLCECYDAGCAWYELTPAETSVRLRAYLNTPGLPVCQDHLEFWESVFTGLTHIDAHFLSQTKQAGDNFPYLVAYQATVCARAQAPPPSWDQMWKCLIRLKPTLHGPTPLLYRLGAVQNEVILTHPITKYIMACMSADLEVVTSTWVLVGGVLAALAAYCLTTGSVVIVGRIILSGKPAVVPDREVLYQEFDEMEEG
From the text: as §1, §2

human liver cathepsin B = target: T3, human liver cathepsin B (Homo sapiens, UniProt P07858); assay: Specificity assay, cathepsin B; conditions: read-out: Cathepsin B activity in the specificity assays (IC50)
T3 construct: purchased Sigma or EMDbiosciences; host or cells: human liver
Description: The specificities of compounds of the present disclosure were determined against a variety of serine proteases: human neutrophil elastase (HNE), porcine pancreatic elastase (PPE) and human pancreatic chymotrypsin and one cysteine protease: human liver cathepsin B. In all cases, a 96-well plate format protocol using colorimetric p-nitroaniline (pNA) substrate or fluorometric Amino-Methyl-Coumarin (AMC) substrate, specific for each enzyme was used as described previously (PCT Patent Application No. WO 00/09543) with some modifications. All enzymes were purchased from Sigma or EMDbiosciences while the substrates were from Bachem.
Each pNA assay included a 2 hours enzyme-inhibitor pre-incubation at room temperature followed by addition of substrate and hydrolysis to ˜15% conversion as measured on a Spectramax Pro microplate reader. The cathepsin B assay was initiated by adding substrate to a 10 min enzyme-inhibitor pre-incubation at room temperature, and the assay plate measured immediately using the Cytofluor Series 4000. Compound concentrations varied from 100 to 0.4 μM depending on their potency. […]
The percentage of inhibition was calculated using the formula: [1−((UVinh−UVblank)/(UVctl−UVblank))]×100 […]

C=C[C@@H]1C[C@]1(NC(=O)[C@@H]1C[C@@H](OC(=O)N2Cc3cccc(F)c3C2)CN1C(=O)[C@@H](OC(=O)NC(C)(C)C)C(C)(C)C)C(=O)NS(=O)(=O)C1CC1 [Example 56Compound 56]
IC50 [1]: 17 nM | IC50 [2]: 9.8 nM | IC50 (human liver cathepsin B): > 100000 nM
